Experimental findings from PMC10461224, “Development of an Affinity-Based Probe to Profile Endogenous Human Adenosine A3 Receptor Expression” (Journal of Medicinal Chemistry, 2023) are described below.

Test [1] has as its target T1, hA3AR (Homo sapiens, UniProt P0DMS8).
T1 construct: expressed in transfected cells; host or cells: CHO cells (CHOhA3AR), gift of Prof; K.N. Klotz, University of Würzburg; used as membrane fractions or live cells
T1 sequence (P0DMS8 1-318): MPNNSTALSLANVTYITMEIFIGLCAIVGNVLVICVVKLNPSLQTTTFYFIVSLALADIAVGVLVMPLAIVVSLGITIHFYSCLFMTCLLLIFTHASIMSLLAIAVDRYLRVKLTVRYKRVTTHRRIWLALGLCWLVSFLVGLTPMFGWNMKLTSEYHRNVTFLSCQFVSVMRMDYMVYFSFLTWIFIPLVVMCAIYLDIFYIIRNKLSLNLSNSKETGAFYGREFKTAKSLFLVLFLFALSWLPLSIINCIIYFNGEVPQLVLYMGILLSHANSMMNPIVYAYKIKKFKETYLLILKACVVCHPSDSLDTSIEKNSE
Briefly: SDS-PAGE labeling on live CHO cells. The format is cell-based. Particulars: 50 nM, 1 h, 37 °C; signal reduced by PSB-11. As to the method:
CHOhA3AR and CHO-K1 cells were cultured as mentioned above. Cells were grown to ∼90% confluency in 10 cm φ plates. 10 plates were used per condition per experiment. The medium was removed, and the competing ligand (PSB-11, unless noted otherwise) in medium (final concentration: 1 μM) was added. Cells were incubated for 1 h (37 °C, 5% CO2). The medium was removed, and the affinity-based probe (final concentration: 50 nM in medium) was added. The cells were incubated for 1 h (37 °C, 5% CO2) and washed with PBS to get rid of all the non-bound probes. Subsequently, the membranes were prepared and collected using the procedure as described above. Membrane aliquots were diluted to a concentration of 1 μg/μL, and 20 μL was taken per sample. PNGase (0.5 μL, 5 U) or MilliQ was added, and the samples were incubated for 1 h at rt. Next, the click mix was freshly prepared by adding together 5 parts 100 mM CuSO4 in MilliQ, 3 parts 1 M NaAsc in MilliQ, 1 part 100 mM THPTA in MilliQ, and 1 part 100 μM Cy5-N3 in DMSO. […] In-gel fluorescence was measured on a Bio-Rad Universal Hood III using Cy3 (605/50 filter) or Cy5 (695/55 filter) settings. […]
Gel images were analyzed using Image Lab software version 6.0.1 (Bio-Rad). Quantification was done in the following manner: the area under the curve (AUC) of the bands was selected using the ‘Lane Profile’ tab and the adjusted volumes were taken. […]

Test [2] addresses T1, hA3AR. Kind of test: Confocal microscopy labeling on CHO cells, click to TAMRA-N3. The format is cell-based. Particulars: 50 nM, 60 min, versus vehicle, PSB-11 pre-incubation and CHO-K1. As to the method:
CHOhA3AR and CHO-K1 cells were cultured in a 96-well plate. Upon reaching a confluency of about 90%, the medium was replaced by medium containing PSB-11 (final concentration: 1 μM) or 1% DMSO (control) and the cells were pre-incubated for 30 min (37 °C and 5% CO2). The medium was then replaced with medium containing 9 (final concentration: 50 nM) or 1% DMSO (vehicle), and the cells were incubated for 60 min (37 °C and 5% CO2). The cells were washed with PBS to remove unbound probe and afterward fixed using a 4% PFA in 10% formalin solution (15 min, rt). The remaining fixative was removed by washing with PBS and subsequently with 20 mM glycine in PBS. The cells were permeabilized by incubation in 0.1% saponin in PBS (10 min, rt). Remaining saponin was removed by a PBS wash, and the cells were stored at 4 °C until further usage. At the day of imaging, PBS was removed and the cells were incubated for 1 h in freshly prepared click mix (100 μL 100 mM CuSO4 in MilliQ, 100 μL 1 M NaAsc in MilliQ, 100 μL […] in MilliQ, 9.66 mL HEPES pH 7.4, and 40 μL 1 mM TAMRA-N3 in DMSO, added in the respective order). […]
CellProfiler (version 2.2.0) was used to create a binary image of the DAPI channel and to propagate the cytoplasmic area based on the DAPI binary. An overlay of the binary cytoplasm/TAMRA channel was generated to quantify per segmented pixel the TAMRA intensity. […]

In the case of `C#CCOc1ccn2c(c1)nc1c2c(=O)n(CCC)c(=O)n1CCCNC(=O)c1ccc(S(=O)(=O)F)cc1` [compound 9, 4-((3-(2,4-Dioxo-8-(prop-2-yn-1-yloxy)-3-propyl-3,4-dihydropyrido[2,1-f]purin-1(2H)-yl)propyl)carbamoyl)benzenesulfonyl fluoride], the “labeling of hA3AR on live CHO cells (SDS-PAGE)” value at hA3AR [1] was “binds and labels the hA3AR on live cells”. At hA3AR [2], the “integrated TAMRA fluorescence intensity” value is recorded as “significant increase in intensity”.
